Laboratory results published in US20070117826A1, “Pharmaceutical formulations comprising ibuprofen, oxycodone, and 14-hydroxycodeinone” (Forest Laboratories, Inc., priority 2005, published 2007).
Where “and” joins values, the source holds several entries; their conditions need not be identical. Identical values can stand only once. Entries after “also recorded” stand apart in the source; their conditions may differ.

Key:
[1] = tested on: polychromatic erythrocyte cells in Crl:CD-1(ICR) BR mouse bone marrow; assay: In vivo mouse micronucleus assay; conditions: for statistically significant increase in micronucleated PCEs: 31.25, 62.5 and 125 mg/kg; for signs of clinical toxicity in treated animals: mice dosed up to and including 125 mg/kg
Experimental: The objective of this study was to evaluate 14-hydroxycodeinone for in vivo clastogenic activity and/or disruption of the mitotic apparatus by detecting micronuclei in polychromatic erythrocyte cells in Crl:CD-1®(ICR) BR mouse bone marrow. The assay design was based on Organization for Economic Co-operation and Development (OECD) guideline 474, updated and adopted Jul. 21, 1997. The study was conducted in compliance with the Good Laboratory Practice regulations as set forth by the FDA.
The micronucleus test can serve as a rapid screen for clastogenic agents and test articles which interfere with normal mitotic cell division (Schmid, W., The micronucleus test. Mutat. Res. 31, 9-15, 1975; Heddle et al., The introduction of micronuclei as a measure of genotoxicity. Mutat. Res. 123, 61-118, 1983). Micronuclei are small chromatin bodies, consisting of entire chromosomes and/or acentric chromosome fragments, which lag behind at mitotic anaphase. At telophase, these multiple micronuclei are in the cytoplasm. During maturation of hematopoietic cells from erythoblasts to erythocytes, the nucleus is extruded. Micronuclei, if present, persist in the cytoplasm of these non-nucleated cells. Detection of micronuclei in non-nucleated cells eliminates the need to search for metaphase spreads in treated cell populations. Test articles affecting spindle-fiber function or formation can be detected through micronucleus induction. In this study, enucleated immature red blood cells or polychromatic erythrocytes (PCEs) were analyzed for the presence of micronuclei.
The micronucleus assay used 48 animals approximately 8 weeks old at the […], with a weight range of 28.4 to 35.3 g.
At least 2000 erythrocytes (PCEs) per animal were analyzed for the presence of […] was assessed by scoring the number of PCEs and ic erythrocytes (NCEs) in at least the first 500 erythrocytes for each […] of the micronuleus assay results is presented in the following table.

Crl:CD-1(ICR) BR mice = assay: Dose range finding study (mortality); assay type: in vivo, mouse; conditions: oral gavage
Experimental: Since no appropriate toxicity data were available (e.g., the same species, strain, route, etc.), a dose range finding study was performed using the same treatment regimen used in the micronucleus assay. Young adult male and female mice of the Crl:CD-1®(ICR) BR strain from Charles River Laboratories, Raleigh, N.C., were used in this study. Dose levels of 0, 125, 250, and 500 mg/kg were tested.

`COc1ccc2c3c1OC1C(=O)C=C[C@@]4(O)[C@@H](C2)N(C)CC[C@]314` (some centres unmarked) [14-hydroxycodeinone] was tested, and the “PCE:NCE mean ratio” value ([1]; 31.25 mg/kg oral gavage, harvest 24 Hours) was 0.74, the “PCE:NCE mean ratio” value ([1]; 62.5 mg/kg oral gavage, harvest 24 Hours) was 0.64 and the “PCE:NCE mean ratio” value ([1]; 125 mg/kg oral gavage, harvest 24 Hours) was 0.66. The “PCE:NCE mean ratio” value ([1]; 125 mg/kg oral gavage, harvest 48 Hours) was 0.36, the “bone marrow toxicity (PCE:NCE ratio versus control 0.60)” value ([1]; 125 mg/kg, 48-hour group, difference not statistically significant at p≦0.05) was “suggesting induced bone marrow toxicity” and the “statistically significant increase in micronucleated PCEs” value [1] was “no signs of clinical toxicity or a statistically significant increase in micronucleated PCEs”. For the same compound, the “statistically significant increase in micronucleated PCEs” value ([1]; listed as 14-Hydroxycodeinone) was “did not induce statistically significant increases”, the “outcome of the mouse bone marrow micronucleus assay (mutagenic properties)” value ([1]; doses up to 125 mg/kg in mice) was “does not exhibit mutagenic properties; also recorded: negative” and the “signs of clinical toxicity in treated animals” value [1] was “no signs of clinical toxicity”. The “signs of clinical toxicity in treated animals” value ([1]; listed as 14-hyrdroxycodeinone) was “did not induce signs of clinical”, the “cytotoxicity to the bone marrow (PCE:NCE ratios versus control)” value ([1]; treated groups overall) was “lack of cytotoxicity to the bone marrow” and the “Number of Mice (died/total)” value (Crl:CD-1(ICR) BR mice; 125 mg/kg) was 0/6. For the same compound, the “Number of Mice (died/total)” value (Crl:CD-1(ICR) BR mice; 250 mg/kg) was 3 of 6 and 3/6 and the “Number of Mice (died/total)” value (Crl:CD-1(ICR) BR mice; 500 mg/kg) was 14 of 18 and 14/18.
